What was measured:
Assay in all cases: normalised response (% of control), CellTox Green; higher = less cell death (100 = DMSO, 0 = benzethonium chloride kill control)
Details in all cases: incubation time: 72 h
CAL-51 = tested on: CAL-51
How it was run: (§1)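 Normalised signals at single concentrations make up the values. They come from breast cancer cell lines seeded (20 µl suspension) into 384-well plates with compound at 5 concentrations in 10-fold steps over a compound-specific 10,000-fold range, incubated 72 h, and read for CellTox Green fluorescence then CellTiter-Glo luminescence. Each plate was normalised to 0.1 % DMSO (100) and a positive kill control (0).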

MDA-MB-468 = tested on: MDA-MB-468
How it was run: as §1

DU-4475 = tested on: DU-4475
How it was run: as §1

CAL-148 = tested on: CAL-148
How it was run: as §1

BT-549 = tested on: BT-549
How it was run: as §1

MFM-223 = tested on: MFM-223
How it was run: as §1

CAL-85-1 = tested on: CAL-85-1
How it was run: as §1

Hs578T = tested on: Hs578T
How it was run: as §1

CAL-120 = tested on: CAL-120
How it was run: as §1

BT-474 = tested on: BT-474
How it was run: as §1

HCC1599 = tested on: HCC1599
How it was run: as §1

MDA-MB-453 = tested on: MDA-MB-453
How it was run: as §1

HCC1143 = tested on: HCC1143
How it was run: as §1

MCF-10A = tested on: MCF-10A
How it was run: as §1

MDA-MB-436 = tested on: MDA-MB-436
How it was run: as §1

MDA-MB-231 = tested on: MDA-MB-231
How it was run: as §1

HCC1937 = tested on: HCC1937
How it was run: as §1

| SMILES | normalised response (CAL-51) [%] | normalised response (MDA-MB-468) [%] | normalised response (DU-4475) [%] | normalised response (CAL-148) [%] | normalised response (BT-549) [%] | normalised response (MFM-223) [%] | normalised response (CAL-85-1) [%] | normalised response (Hs578T) [%] | normalised response (CAL-120) [%] | normalised response (BT-474) [%] | normalised response (HCC1599) [%] | normalised response (MDA-MB-453) [%] | normalised response (HCC1143) [%] | normalised response (MCF-10A) [%] | normalised response (MDA-MB-436) [%] | normalised response (MDA-MB-231) [%] | normalised response (HCC1937) [%] |
| --- | --- | --- | --- | --- | --- | --- | --- | --- | --- | --- | --- | --- | --- | --- | --- | --- | --- |
| C/C(=C\c1csc(C)n1)[C@@H]1C[C@@H]2O[C@]2(C)CCC[C@H](C)[C@H](O)[C@@H](C)C(=O)C(C)(C)[C@@H](O)CC(=O)N1 [Ixabepilone] (100 nM) | 35.9 | 83 | 103 | 102 | 65.6 | 98.8 | 95.9 | 95.5 | 105 | 100 | 102 | 107 | 102 | 87.7 | 106 | 102 | – |
| Cn1cc(C2=C(c3cn(C4CCN(Cc5ccccn5)CC4)c4ccccc34)C(=O)NC2=O)c2ccccc21 [Enzastaurin] (10000 nM) | 95.7 | 138 | 111 | 105 | 94.8 | 100 | 65 | – | 79.2 | 95.5 | 120 | 108 | 111 | 94.4 | 94.4 | 113 | 121 |
| Cn1cc(C2=C(c3cn(C4CCN(Cc5ccccn5)CC4)c4ccccc34)C(=O)NC2=O)c2ccccc21 [Enzastaurin] (1000 nM) | 104 | 112 | 104 | 60 | 143 | 82 | 97.7 | 97.7 | 103 | 105 | 102 | 107 | 105 | 109 | 89.4 | 76.6 | – |
| CC(C)C[C@H](NC(=O)[C@@H](COC(C)(C)C)NC(=O)[C@H](Cc1ccc(O)cc1)NC(=O)[C@H](CO)NC(=O)[C@H](Cc1c[nH]c2ccccc12)NC(=O)[C@H](Cc1cnc[nH]1)NC(=O)[C@@H]1CCC(=O)N1)C(=O)N[C@@H](CCCNC(=N)N)C(=O)N1CCC[C@H]1C(=O)NNC(N)=O [Goserelin] (10000 nM) | 104 | 181 | 98.9 | 104 | 107 | – | 114 | – | 98 | 84.2 | 95.5 | 95 | – | 75.6 | 90.3 | 94.9 | 88 |
| CO[C@@]12[C@H](COC(N)=O)C3=C(C(=O)C(C)=C(N)C3=O)N1C[C@@H]1N[C@@H]12 [Mitomycin C] (10000 nM) | -36.9 | 5.66 | 94.7 | 42.2 | 99.5 | – | 102 | 77.6 | 98.4 | 101 | 99.1 | 104 | 36.6 | 85.4 | 90.2 | 101 | 108 |
| CC(O)(CS(=O)(=O)c1ccc(F)cc1)C(=O)Nc1ccc(C#N)c(C(F)(F)F)c1 (stereo not drawn) [Bicalutamide] (1000 nM) | 112 | 137 | 103 | 87.8 | 116 | 97.5 | 94.6 | – | 97.6 | 104 | 101 | 103 | 111 | 105 | 95.5 | 115 | 59.6 |
| CCNC(=O)CCC/C=C\C[C@@H]1[C@@H](/C=C/[C@@H](O)CCc2ccccc2)[C@H](O)C[C@@H]1O [Bimatoprost] (5500 nM) | 112 | – | 99.7 | 100 | 121 | 97.4 | 106 | 61.1 | 98.4 | 57 | 102 | 98 | 117 | 86.9 | 77 | 110 | 104 |
| COc1cc(Nc2c(C#N)cnc3cc(OCCCN4CCN(C)CC4)c(OC)cc23)c(Cl)cc1Cl [Bosutinib] (1000 nM) | 84.4 | 164 | 101 | 92.5 | 106 | – | 93.7 | 78 | 104 | 94.2 | 100 | 114 | 116 | 93.7 | 107 | 93.6 | 110 |
| CC(C)(C)NC(=O)[C@H]1CC[C@H]2[C@@H]3CC[C@H]4NC(=O)C=C[C@]4(C)[C@H]3CC[C@]12C [Finasteride] (10000 nM) | 100 | 174 | 102 | 103 | 98.9 | – | 91.2 | – | 106 | 100 | 97.7 | 85.4 | 81.5 | 94.1 | 101 | 113 | 77.4 |
| CC(O)(CS(=O)(=O)c1ccc(F)cc1)C(=O)Nc1ccc(C#N)c(C(F)(F)F)c1 (stereo not drawn) [Bicalutamide] (10000 nM) | 92.2 | – | 104 | 105 | 116 | 100 | 67.6 | 86 | 103 | 103 | 91.5 | 99 | 134 | 106 | 78.1 | 125 | 112 |
| CO[C@@]12[C@H](COC(N)=O)C3=C(C(=O)C(C)=C(N)C3=O)N1C[C@@H]1N[C@@H]12 [Mitomycin C] (1000 nM) | 35.3 | – | 94.7 | 97.8 | 123 | 101 | 97.6 | 90.8 | 100 | 94.9 | 98.1 | 100 | 104 | 90.1 | 78.8 | 97.1 | 111 |
